Assay [1] deals with tumor cells with abnormal expressions of EGFR, HER2/ERBB2, FGFR1, RAS, BRAF, cMET, and ALK genes. Kind of assay: In vitro growth inhibition of different tumor cells (summary over the panel). The class given is cell-based, human. The conditions noted are these: GI50 value in the micro-molar range. An excerpt:
Human epidermal cancer cell line A431 (EGFR WT, amplification and high expression, from Shanghai Cell Bank of Chinese Academy of Sciences and ATCC), human lung cancer cell line NCI-H292 (EGFR WT, purchased from Shanghai Cell Bank of Chinese Academy of Sciences), NSCLC cell lines PC-9 and HCC827 (EGFR exon19 E746-A750 deletion, two cell lines are sensitive to the first-generation EGFR PTK inhibitor), NSCLC cell line NCI-H1975 (EGFR L858R/T790M and the first-generation EGFR inhibitor resistance, ATCC) were cultured with 1×RPMI1640 complete medium (supplement with 10% FBS), respectively.
Human gastric cancer cell line NCI-N87 (HER2/ErbB2 amp, ATCC), human breast cancer cell line HCC1954 (HER2/ErbB2 amp, ATCC) and ZR-75-30 (HER2/ErbB2 amp, ATCC), human adenocarcinoma cell line AU565 (HER2/ErbB2 amp, ATCC), human lung squamous cell carcinoma cell line NCI-H2170 (HER2/ErbB2 amp, ATCC), human bronchioalveolar adenocarcinoma cell line NCI-H1781 (HER2/ErbB2 Ins G776V,C mutant type, ATCC) were cultured with a 1×RPMI1640 complete medium (10% FBS), respectively. Human lung adenocarcinoma cell line Calu-3 (HER2/ErbB2 amp, ATCC) was cultured with 1×MEM, 10% FBS, 1% double antibody, 1% NEAA (Gibco), 2 mM glutamine and 1 mM sodium pyruvate. The human breast cancer cell line SK-BR-3 (HER2/ErbB2 amp, ATCC) was cultured with a McCOY'S5A complete medium (10% FBS).
The human gastric cancer cell line MKN-45 (c-MET amp, ATCC) and the non-small cell lung cancer cell line NCI-H1993 (c-MET amp, ATCC) were cultured in complete medium comprising 1×RPMI1640 and 10% FBS, respectively.
Human non-small cell lung cancer cell line NCI-H2228 (expressing EML4-ALK fusion gene, ATCC) and human anaplastic large cell lymphoma cell line Karpas-299 (expressing NPM-ALK fusion gene, ATCC) were cultured in complete medium comprising 1×RPMI1640 (10% FBS), respectively. Neuroblastoma cell line SH-SY5Y (expressing ALK F1174L mutant protein, Shanghai Cell Bank, Chinese Academy of Sciences) was cultured in MEM complete medium (1×MEM, 10% FBS, 1% NEAA, 1 mM sodium pyruvate).
Human non-small cell lung cancer cell NCI-H1581 (FGFR1 amp, ATCC) is an FGFR1 gene amplified/overexpressed tumor cell line. It was cultured in complete medium comprising 1×RPMI1640 with 10% FBS.
(§1) Human large cell lung cancer cell NCI-H460 (KRAS […] mutant type, ATCC), human non-small cell lung cancer cell line H1299 (NRAS Q61K mutant type, ATCC), human melanoma cell line A375 (BRAF V600E mutant type, Shanghai Cell Bank of Chinese Academy of Sciences), human colon cancer cell line HCT116 (KRAS G13D mutant type, Shanghai Cell Bank, Chinese Academy of Sciences) were cultured in a complete medium of 1×RPMI1640 (10% FBS), respectively. Human non-small cell lung cancer cells A549 (KRAS G12S mutant type, Shanghai Cell Bank, Chinese Academy of Sciences) were cultured in a complete medium of 1× Ham's supplemented with 10% FBS, 1% double antibody, and 2 mM glutamine.
(§2) Adherent cells were digested with 0.25% pancreatin-EDTA (Gibco). The suspension cells were collected by centrifugation. The supernatant was discarded and the cell pellet was resuspended and counted. Different cell concentrations (5˜10×10^4 cells/mL) were prepared according to the growth cycle of each cell line and then seeded on a 96-well plate (Corning), 100 μL/well. The cells were incubated overnight at 37° C., 5% CO2. The compounds were added to the cells on the second day with 2 wells in parallel. The final concentration of organic solvent shall not exceed 1%. The cells were continually incubated for 3 to 5 days, and then subjected to MTT assay.
(§3) The compound of the present invention and the control compound were dissolved in DMSO (Sigma) respectively, with the purity of more than 98%. The compound was stored in a concentration of 10 mM at −20° C. and diluted to 2- or 10-fold series prior to use.
Dojindo CCK8 reagent kit was used as MTT assay. THERMO […] FC meter was used as microplate reader. […]

Assay [2] concerns A375 (BRAF V600E mutant type). Kind of assay: In vitro growth inhibition (GI50), A375. The conditions noted are these: Homo sapiens, A-375. Format: cell-based.
Text: Tumor cell line is an effective cell model for studying the inhibition of tumor cell growth or proliferation in vitro. In the present invention, a representative tumor cell line was selected to determine the cell growth inhibition activity of the present compound. All cell lines used were from ATCC, DSMZ, and the Cell Bank of the Chinese Academy of Sciences. Cell culture conditions and methods were in accordance with the requirements of each cell line. Cells were subcultured in vitro for no more than 3 passages each time, and as required, single-clone purification and identification of cell lines could be carried out.
The cell culture media used were RPMI1640 (Gibco), MEM (Gibco), McCOY'S5A (Gibco), and IMDM (Gibco). The complete medium was prepared by supplement with 5˜20% fetal calf serum (Gibco), 1% double-antibiotics (10000 units/mL penicillin and 10000 units/mL), 2 mM glutamine or 1 mM sodium pyruvate, respectively.
as §1, §2, §3
Dojindo CCK8 reagent kit was used as MTT assay. THERMO […] FC meter was used as microplate reader.
For adherent cells, culture medium was removed and immediately replaced with the fresh prepared medium which contains 10% CCK8 reagent (100 μL/well). For the suspension cells, CCK8 was directly added to 10% of the final concentration. The cells were continually incubated for 1˜4 h. When a dark yellow color could be observed in the solvent control wells, the absorbance value at OD450 nm was measured and the cell growth rate was calculated according to the following formula: Cell Growth Rate (%)=100*(T−T0)/(C−T0) T=optical density of drug treatment cell well—optical density of blank control well; T0=optical density of cell well before drug treatment—optical density of blank control well; C=optical density of cell well of solvent control group—optical density of blank control well. The concentration value of 50% inhibition of cell growth (GI50) was calculated according to the drug concentration and cell growth rate curve. The experiment was independently repeated 1˜3 times, and subject to biological statistical analysis. 4. Experimental Results
Tumor cell growth inhibition test was performed by selecting representative compounds (compounds 4, 11, 12, 16, 27, 68, 71, 77, 79, 89 and 116 of the present invention). The initial concentration of the compound was 5,000 nM, then it was serially diluted by 2-fold or 10-fold to 0.01 nM. […]

With `CC(C)(C)c1cc(NC(=O)Nc2ccc(-n3cnc4cc(OCCN5CCOCC5)ccc43)cc2)[nH]n1` [Compound 89, 1-(5-tert-butyl-2H-pyrazol-3-yl)-3-{4-[5-(2-morpholin-4-yl-ethoxyl)-benzimidazol-1-yl]-phenyl}-urea], the “inhibition effect on growth of tumor cells with abnormal expressions of EGFR, HER2/ERBB2, FGFR1, RAS, BRAF, cMET, and ALK genes” value in assay [1] is listed as “no significant inhibition effect”. In addition, in assay [2], the 50% growth inhibitory concentration (GI50) was more than 2.5 µM.

In assay [2], `CC(C)(C)c1cc(NC(=O)Nc2ccc(-n3cnc4cc(O)ccc43)cc2)no1` [Compound 4, 1-(5-tert-butyl-isoxazol-3-yl)-3-[4-(5-hydroxy-benzimidazol-1-yl)-phenyl]-urea] gave a 50% growth inhibitory concentration (GI50) of more than 2.5 µM.

Take `CC(C)(C)c1cc(NC(=O)Nc2ccc(-n3cnc4cc(OCCO)ccc43)cc2)no1` [Compound 11, 1-(5-tert-butyl-isoxazol-3-yl)-3-{4-[5-(2-hydroxy-ethoxyl)-benzimidazol-1-yl]-phenyl]-urea]: the concentration for 50% growth inhibition (GI50) in assay [2] was more than 2.5 µM.

Consider `COCCOc1ccc2c(c1)ncn2-c1ccc(NC(=O)Nc2cc(C(C)(C)C)n[nH]2)cc1` [Compound 77, 1-(5-tert-butyl-2H-pyrazol-3-yl)-3-{4-[5-(2-methoxyl-ethoxyl)-benzimidazol-1-yl]-phenyl}-urea], for which, in assay [1], the “inhibition effect on growth of tumor cells with abnormal expressions of EGFR, HER2/ERBB2, FGFR1, RAS, BRAF, cMET, and ALK genes” value is given as “no significant inhibition effect”. The same compound had a GI50 in assay [2] of more than 2.5 µM.

On to `CC(C)(C)c1cc(NC(=O)Nc2ccc(-n3cnc4ccccc43)cc2)[nH]n1` [Compound 68, 1-(4-benzimidazol-1-yl-phenyl)-3-(5-tert-butyl-2H-pyrazol-3-yl)-urea], for which, in assay [1], the “inhibition effect on growth of tumor cells with abnormal expressions of EGFR, HER2/ERBB2, FGFR1, RAS, BRAF, cMET, and ALK genes” value is “no significant inhibition effect”. This compound displayed a concentration for 50% growth inhibition (GI50) in assay [2] of more than 2.5 µM.

With `CC(C)(C)c1cc(N)n(C(=O)Nc2ccc(-n3cnc4ccccc43)cc2)n1` [Compound 116, 5-amino-3-tert-butyl-pyrazol-1-carboxylic acid (4-benzimidazol-1-yl-phenyl)-amide], the “inhibition effect on growth of tumor cells with abnormal expressions of EGFR, HER2/ERBB2, FGFR1, RAS, BRAF, cMET, and ALK genes” value in assay [1] is given as “no significant inhibition effect”. In assay [2], this compound gave a GI50 of more than 2.5 µM.

Consider `CC(C)(C)c1cc(NC(=O)Nc2ccc(-n3cnc4cc(OCCN5CCOCC5)ccc43)cc2)no1` [Compound 16, 1-(5-tert-butyl-isoxazol-3-yl)-3-{4-[5-(2-morpholin-4-yl-ethoxyl)-benzimidazol-1-yl]-phenyl}-urea], for which the “inhibition effect on growth of tumor cells with abnormal expressions of EGFR, HER2/ERBB2, FGFR1, RAS, BRAF, cMET, and ALK genes” value in assay [1] is recorded as “no significant inhibition effect”. The GI50 in assay [2] is more than 2.5 µM.

For `COc1ccc2c(c1)ncn2-c1ccc(NC(=O)Nc2cc(C(C)(C)C)n[nH]2)cc1` [Compound 71, 1-(5-tert-butyl-2H-pyrazol-3-yl)-3-[4-(5-methoxyl-benzimidazol-1-yl)-phenyl]-urea], the “inhibition effect on growth of tumor cells with abnormal expressions of EGFR, HER2/ERBB2, FGFR1, RAS, BRAF, cMET, and ALK genes” value in assay [1] is “no significant inhibition effect”. The compound also came in with a GI50 in assay [2] of more than 2.5 µM.

In assay [2], `CC(C)(C)c1cc(NC(=O)Nc2ccc(-n3cnc4cc(OCCO)ccc43)cc2)[nH]n1` [Compound 79, 1-(5-tert-butyl-2H-pyrazol-3-yl)-3-{4-[5-(2-hydroxy-ethoxyl)-benzimidazol-1-yl]-phenyl]urea] returned a GI50 of more than 2.5 µM.

As for `CC(C)(C)c1cc(NC(=O)Nc2ccc(-n3cnc4ccc(OCCN5CCOCC5)cc43)cc2)no1` [Compound 27, 1-(5-tert-butyl-isoxazol-3-yl)-3-{4-[6-(2morpholin-4-yl-ethoxyl)-benzimidazol-1-yl]-phenyl}-urea], the “inhibition effect on growth of tumor cells with abnormal expressions of EGFR, HER2/ERBB2, FGFR1, RAS, BRAF, cMET, and ALK genes” value in assay [1] is “no significant inhibition effect”. In assay [2], this compound yielded a concentration for 50% growth inhibition (GI50) of more than 2.5 µM.
